From ChEMBL document CHEMBL5727994, “Heterocyclic glutaminase inhibitors” (2020)

Experiment: Modified Recombinant Enzyme Assay: Glutaminase reaction buffer was prepared [50 mM Tris-HCl pH 8.8, 150 mM K2HPO4, […] EDTA, 0.1 mg/ml BSA (Calbiochem no. 2960), 1 mM DTT, 2 mM NADP+(Sigma Aldrich no. N5755), and 0.01% TX-100] and used to make 3×-enzyme-containing solution, 3×-substrate-containing solution, and 3×-inhibitor-containing solution (see below) Inhibitor-containing solution was made

Point of comparison: `O=C(Cc1ccccn1)Nc1nnc(CCCCc2ccc(NC(=O)C(O)c3ccccc3)nn2)s1` (stereo not drawn), IC50 190 nM. Against it:
- O=C(Cc1ccc(Cl)c(OC(F)(F)F)c1)Nc1ccc(CCCCc2nnc(NC(=O)Cc3ccccn3)s2)nn1 — 12-fold lower, 16 nM
- CC(C)(C)OC(=O)Nc1cccc(CC(=O)Nc2nnc(CCCCc3ccc(NC(=O)Cc4cccc(OC(F)(F)F)c4)nn3)s2)n1 — within 1.5-fold, 140 nM
- COc1ccc(CC(=O)Nc2ccc(CCCCc3nnc(NC(=O)Cc4ccccn4)s3)nn2)cc1OC(F)(F)F — 7.9-fold lower, 24 nM
- O=C(Cc1cc(OC(F)(F)F)ccc1O)Nc1ccc(CCCCc2nnc(NC(=O)Cc3ccccn3)s2)nn1 — 7.3-fold lower, 26 nM
- O=C(Cc1ccc(O)c(OC(F)(F)F)c1)Nc1ccc(CCCCc2nnc(NC(=O)Cc3ccccn3)s2)nn1 — 4.5-fold lower, 42 nM
- COc1cc(CC(=O)Nc2ccc(CCCCc3nnc(NC(=O)Cc4ccccn4)s3)nn2)cc(OC(F)(F)F)c1 — 12-fold lower, 16 nM
- COc1ccc(OC(F)(F)F)cc1CC(=O)Nc1ccc(CCCCc2nnc(NC(=O)Cc3ccccn3)s2)nn1 — 5.6-fold lower, 34 nM
- Nc1cccc(CC(=O)Nc2nnc(CCCCc3ccc(NC(=O)Cc4cccc(OC(F)(F)F)c4)nn3)s2)n1 — 3.8-fold lower, 50 nM
- O=C(Cc1cc(O)cc(OC(F)(F)F)c1)Nc1ccc(CCCCc2nnc(NC(=O)Cc3ccccn3)s2)nn1 — 15-fold lower, 13 nM
- Cc1cccc(CC(=O)Nc2nnc(CCCCc3ccc(NC(=O)Cc4cccc(OC(F)(F)F)c4)nn3)s2)n1 — 16-fold lower, 12 nM
- O=C(Cc1cc(OC(F)(F)F)ccc1F)Nc1ccc(CCCCc2nnc(NC(=O)Cc3ccccn3)s2)nn1 — 9.5-fold lower, 20 nM
- O=C(Cc1ccc(F)c(OC(F)(F)F)c1)Nc1ccc(CCCCc2nnc(NC(=O)Cc3ccccn3)s2)nn1 — 5.8-fold lower, 33 nM
